Laboratory results: patent US10428024B2, “Piperidinyl derivatives” (MERCK PATENT GMBH, priority 2016, dated 2019)

Key:
[1] = test system: PDH-E1alpha (pSer300) in HEK293T cells; experiment: Cellular immunofluorescence assay (Anti-PDH-E1alpha (pSer300)) in HEK293T cells; format: cell-based; settings: Homo sapiens, HEK-293T, 5 hours incubation, read-out: IC50 (cell data)
Description: Cellular Assay for Determination of Compound Activities
Compound activities were determined in a cellular immunofluorescence assay.
Human HEK293T cells were seeded into black 384-well plates with clear bottom and grown overnight.
Next day, test compounds were added to the wells and the plates incubated for 5 hours. Following this, cells were fixed with formaldehyde, permeabilised and blocked. The primary antibody, Anti-PDH-E1alpha (pSer300), AP1064 (Merck Millipore) was added and incubated overnight in the plate wells. Next, cells were washed and the secondary antibody, Alexa Fluor 488, goat anti-rabbit ab (A-11008, Invitrogen) was added together with Hoechst 33258 (H3569, Invitrogen) and incubated for 1 hour in the plate wells. Finally, cells were washed and the plates were measured on the laser scanning cytometer acumen hci (TTpLabtech).
The raw data were normalized against a pharmacological inhibitor control and dose response curves were generated by plotting the percent effect values using the software package Genedata screener (Genedata).

PDHK2 = PDHK2 (Homo sapiens (Human), UniProt Q15119); experiment: Biochemical activity testing of PDHK2: PDC inactivation assay; settings: human rec PDHK2, 5 μM ATP, read-out: IC50 PDHK2 (enzyme assay)
Text: Biochemical Activity Testing of PDHK2: PDC Inactivation Assay
The biochemical activity assay for PDHK2 is based on the inactivation of PDC through phosphorylation by PDHK2. The assay is run in two steps: the enzymatic PDHK2 reaction in which isolated PDC is phosphorylated by PDHK2 with ATP as co-substrate and the PDC activity assay in which pyruvate and NAD are converted to acetyl-CoA and NADH. The PDC activity correlates to the increase in NADH and thereby is detectable directly via the increasing fluorescence signal (Exc 340 nm, Em 450 nm). Inhibition of PDHK2 results in a lower phosphorylation status and thereby a less decrease in activity of PDC and a stronger increase in NADH fluorescence signal.
The PDC inactivation assay is performed in Greiner 384-well microtiter plates and is used for high throughput screen. 4 μl of PDHK2 (human, rec, Carna Bioscience, 10 ng/μl-137 nM final concentration) and PDC (isolated from porcine heart, Sigma-Aldrich, 20 mU/ml final concentration) are incubated in the absence or presence of the test compound (10 dilution concentrations) for 30 min at room temperature in kinase buffer (15 mM potassium phosphate buffer, pH 7.0, 60 mM KCl, 1.5 mM DTT, 2.5 mM MgCl2, 0.0125% (w/v) BSA, 0.125% Pluronic F-68). The kinase reaction is started by the addition of 4 μl ATP substrate solution (fc 5 μM in kinase buffer). After 30 min incubation at 37° C. 40 μl of PDC reaction solution (100 mM Tris/HCl, pH 7.8, 0.5 mM EDTA, 1 mM MgCl2, 50 mM NaF, 0.25 mM Coenzyme A, 5 mM pyruvate, 1 mM NAD, 5 mM DTT, 1 mM thiamine pyrophosphate) is added. The first fluorescence measurement is performed on a Perkin Elmer Envision (Exc 340 nm, Em 450 nm). The reaction is incubated for 45 min at room temperature. Afterwards a second fluorescence measurement is performed and the PDC activity is calculated by the difference between both measurements. As full value for the PDHK2 assay the inhibitor-free PDHK2 reaction is used. The pharmacological zero value used is DCA (Sigma-Aldrich) in a final concentration of 3 mM. The inhibitory values (IC50) were determined using either the program Symyx Assay Explorer® or Condosseo® from GeneData.

human PDHK2 (12-407) = human PDHK2 (12-407) (Homo sapiens (Human), UniProt Q15119); experiment: Isothermal titration calorimetry (ITC); settings: 30° C., pH 7.5; read-out: Binding (ITC) KD
Description: Isothermal Titration Calorimetry
ITC measurements were performed with a VP-ITC micro calorimeter (Microcal, LLC/GE Healthcare Bio-Sciences AB, Uppsala, Sweden). In general titrations were performed by titrating the protein (50 μM) to the test compound (5 μM) in 12 μl injections. All binding experiments were carried out at 30° C. In general the test compounds were diluted form DMSO stock solutions into the measurement buffer with a maximum final concentration of 1% DMSO. The measurement buffer was 20 mM HEPES, 135 mM KCl, 1 mM TCEP, 2 mM MgCl2, 15 mM NaH2PO4, pH 7.5. The human PDHK2 (12-407) was produced in E. coli as his-tagged protein and purified by affinity chromatography. The tag was removed by side specific proteolysis. Before titration the protein buffer was changed to the measurement buffer containing the same DMSO concentration as the test compound dilution. ITC data analysis was performed using Origin 7 calorimetry software from the same supplier. For most measurements a binding model of one binding site was assumed. According to the applied mathematical model it is possible to calculate the binding constant (KA), the observed binding enthalpy (ΔH^obs) as well as the stoichiometry (N) of the formed complex. Preceding analysis the raw data was corrected for the heats of dilution by extrapolating from the saturation value from the end of titration. In order to allow for direct comparison between the respective experimental series and protein preparations the protein concentration was corrected by referencing titrations to a well behaved standard inhibitor. The apparent stoichiometry values defined the fraction of binding competent protein and compensated for relative errors in protein concentration measurements. This corrected protein concentration was used to set up ITC experiment series with test compounds. Any deviations from ideal 1:1 stoichiometry observed here were attributed to errors in compound concentration. This nominal compound concentration was corrected as well to achieve 1:1 stoichiometry in the fit.

Row | SMILES | IC50 (PDHK2) [µM] | Kd (human PDHK2 (12-407)) [µM] | IC50 [1] [µM]
1 | CCN(C(=O)c1ccc(C)cc1F)C1CCN(C(=O)[C@@](C)(O)C(F)(F)F)CC1 [Compound A64, N-Ethyl-2-fluoro-4-methyl-N-[1-((R)-3,3,3-trifluoro-2-hydroxy-2-methyl-propionyl)-piperidin-4-yl]-benzamide] | 0.41 | 0.069 | 0.31
2 | Cc1ccc(C(=O)N(C)[C@H]2CCN(C(=O)[C@@](C)(O)C(F)(F)F)C[C@H]2C)c(F)c1 [Compound A27, 2-Fluoro-N,4-dimethyl-N-[(3R,4S)-3-methyl-1-[(2R)-3,3,3-trifluoro-2-hydroxy-2-methylpropanoyl]piperidin-4-yl]benzamide] | 0.3 | 0.013 | 0.0093
3 | CN(C(=O)C1CCN(C(=O)[C@@](C)(O)C(F)(F)F)CC1)c1ccc(Cl)cc1 [Compound A5, 1-((R)-3,3,3-Trifluoro-2-hydroxy-2-methyl-propionyl)-piperidine-4-carboxylic acid (4-chloro-phenyl)-methyl-amide] | 0.59 | 0.19 | 2.8
4 | Cc1ccc(C(=O)N(C(C)C)C2CCN(C(=O)[C@@](C)(O)C(F)(F)F)CC2)c(F)c1 [Compound A65, 2-Fluoro-N-isopropyl-4-methyl-N-[1-((R)-3,3,3-trifluoro-2-hydroxy-2-methyl-propionyl)-piperidin-4-yl]-benzamide] | 1.3 | 0.14 | 0.59
5 | Cc1ccc(N(C)C(=O)C2CCN(C(=O)[C@@](C)(O)C(F)(F)F)CC2)cc1 [Compound A1, 1-((R)-3,3,3-Trifluoro-2-hydroxy-2-methyl-propionyl)-piperidine-4-carboxylic Acid Methyl-p-Tolyl-Amide] | 1.1 | 0.13 | 5.3
6 | COc1ccc(C(=O)N(C)[C@H]2CCN(C(=O)[C@@](C)(O)C(F)(F)F)C[C@H]2C)cc1 [Compound A35, 4-Methoxy-N-methyl-N-[(3R,4S)-3-methyl-1-[(2R)-3,3,3-trifluoro-2-hydroxy-2-methylpropanoyl]piperidin-4-yl]benzamide] | 0.31 | 0.037 | 0.033
7 | CC(C)N(C(=O)c1ccc(C#N)cc1)C1CCN(C(=O)[C@@](C)(O)C(F)(F)F)CC1 [Compound A67, 4-Cyano-N-isopropyl-N-[1-((R)-3,3,3-trifluoro-2-hydroxy-2-methyl-propionyl)-piperidin-4-yl]-benzamide] | 1.6 | 0.47 | 4.1

Now from value to compound, other results behind:

Row | IC50 (PDHK2) [µM] | Kd (human PDHK2 (12-407)) [µM] | SMILES | IC50 [1] [µM]
8 | 0.3 | 0.053 | C[C@@H]1CN(C(=O)[C@@](C)(O)C(F)(F)F)CC[C@@H]1N(C)C(=O)c1ccc(C#N)cc1 [Compound A44, 4-Cyano-N-methyl-N-[(3R,4S)-3-methyl-1-[(2R)-3,3,3-trifluoro-2-hydroxy-2-methylpropanoyl]piperidin-4-yl]benzamide] | 0.35
9 | 0.24 | 0.066 | C[C@@H]1CN(C(=O)[C@@](C)(O)C(F)(F)F)CC[C@@H]1N(C)C(=O)c1ncc(F)cc1F [Compound A41, 3,5-Difluoro-N-methyl-N-[(3R,4S)-3-methyl-1-[(2R)-3,3,3-trifluoro-2-hydroxy-2-methylpropanoyl]piperidin-4-yl]pyridine-2-carboxamide] | 0.18
10 | 0.13 | 0.016 | Cc1ccc(C(=O)N(C)[C@H]2CCN(C(=O)[C@@](C)(O)C(F)(F)F)C[C@H]2C)cc1 [Compound A24, N,4-Dimethyl-N-[(3R,4S)-3-methyl-1-[(2R)-3,3,3-trifluoro-2-hydroxy-2-methylpropanoyl]piperidin-4-yl]benzamide] | 0.29
11 | 0.2 | – | Cc1ccc(N(C)C(=O)C2CCN(C(=O)[C@@](C)(O)C(F)(F)F)CC2C)c(F)c1 (stereo partly drawn) [Compound A12, N-(2-fluoro-4-methylphenyl)-N,3-dimethyl-1-[(2R)-3,3,3-trifluoro-2-hydroxy-2-methylpropanoyl]piperidine-4-carboxamide] | 0.19
12 | 0.25 | 0.038 | C[C@@H]1CN(C(=O)[C@@](C)(O)C(F)(F)F)CC[C@@H]1N(C)C(=O)c1ccc(F)cc1 [Compound A29, 4-Fluoro-N-methyl-N-[(3R,4S)-3-methyl-1-[(2R)-3,3,3-trifluoro-2-hydroxy-2-methylpropanoyl]piperidin-4-yl]benzamide] | 0.29
13 | 0.29 | 0.044 | C[C@@H]1CN(C(=O)[C@@](C)(O)C(F)(F)F)CC[C@@H]1N(C)C(=O)c1ccc(C(F)(F)F)cc1 [Compound A62, N-Methyl-N-[(3R,4S)-3-methyl-1-[(2R)-3,3,3-trifluoro-2-hydroxy-2-methylpropanoyl]piperidin-4-yl]-4-(trifluoromethyl)benzamide] | 0.29
14 | 0.18 | 0.019 | C[C@@H]1CN(C(=O)[C@@](C)(O)C(F)(F)F)CC[C@@H]1N(C)C(=O)c1ccc(F)cc1F [Compound A38, 2,4-Difluoro-N-methyl-N-[(3R,4S)-3-methyl-1-[(2R)-3,3,3-trifluoro-2-hydroxy-2-methylpropanoyl]piperidin-4-yl]benzamide] | 0.11
15 | 0.23 | 0.13 | C[C@@H]1CN(C(=O)[C@@](C)(O)C(F)(F)F)CC[C@@H]1N(C)C(=O)c1cnn(C)c1 [Compound A56, N,1-Dimethyl-N-[(3R,4S)-3-methyl-1-[(2R)-3,3,3-trifluoro-2-hydroxy-2-methylpropanoyl]piperidin-4-yl]-1H-pyrazole-4-carboxamide] | 0.91
16 | 0.2 | 0.09 | Cc1ccc(N(C)C(=O)C2CCN(C(=O)[C@@](C)(O)C(F)(F)F)CC2)c(F)c1 [Compound A2, 1-((R)-3,3,3-Trifluoro-2-hydroxy-2-methyl-propionyl)-piperidine-4-carboxylic acid (2-fluoro-4-methyl-phenyl)-methyl-amide] | 2.6
17 | 0.12 | 0.014 | Cc1ccc(N(C)C(=O)[C@H]2CCN(C(=O)[C@@](C)(O)C(F)(F)F)C[C@H]2C)c(F)c1 [Compound A13, (3S,4S)—N-(2-fluoro-4-methylphenyl)-N,3-dimethyl-1-[(2R)-3,3,3-trifluoro-2-hydroxy-2-methylpropanoyl]piperidine-4-carboxamide] | 0.07
18 | 0.24 | – | Cc1ccc(N(C)C(=O)C2CCN(C(=O)[C@@](C)(O)C(F)(F)F)CC2C)cc1 (stereo partly drawn) [Compound A6, N,3-Dimethyl-N-(4-methylphenyl)-1-[(2R)-3,3,3-trifluoro-2-hydroxy-2-methylpropanoyl]piperidine-4-carboxamide] | 0.2
